As a reminder, the ED50 is the dose that gives a 50% effect, or the effect in half of the subjects.

The assay concerns emetic effect of apomorphine. Kind of assay: Antiemetic activity (IM) against apomorphine-induced emesis in unanesthetized dogs, ED50. Format: in vivo. Conditions: for ED50: Canis lupus familiaris. The protocol: Description of this invention will therefore be made with especial emphasis on 4-(p-fluorobenzoyl)-1-[3-(p-fluorobenzoyl)propyl]piperidine hydrochloride, it being understood that the principles and practices involved are applicable to the other compounds of the formula first hereinabove set forth. The antiemetic activity of the compounds was determined by the following standard pharmacological tests.
The compounds were administered intramuscularly (IM) to unanesthetized dogs in the caudal muscles (left hind leg) and thirty minutes later they received apomorphine hydrochloride (0.1 mg./kg. s.c.). The compounds were administered in micrograms (mcg.) at several dose levels and the percent reduction in frequency of emesis relative to controls determined. From the data the ED50 in micrograms was determined.

The mark [1] stands for this setting: IM, unanesthetized dogs, 30 minutes before apomorphine hydrochloride 0.1 mg/kg s.c., reduction in frequency of emesis relative to controls, read-out: ED50 and 95% Confidence Limits.

Where a name gives a salt, the structure may show the parent alone. Read-outs that look alike come from different tables or passages of the source.

For the molecule `O=C(CCCN1CCC(C(=O)c2ccc(Cl)cc2)CC1)c1ccc(Cl)cc1` [Example 4, 4-(p-chlorobenzoyl)-1-[3-(p-chlorobenzoyl)propyl]piperidine Hydrochloride], where the note is “IM, unanesthetized dogs, 30 minutes before apomorphine hydrochloride 0.1 mg/kg s.c., footnote a: estimated values”, the “ED50 and 95% Confidence Limits (Estimated Values)” value is listed as ~1401.0 (796-2468) mcg/kg.

With `OC(CCCN1CCC(C(O)c2ccc(F)cc2)CC1)c1ccc(F)cc1` (stereo not drawn) [Example 10, 4-(p-Fluoro-α-hydroxybenzyl)-1-[3-(p-fluoro-α-hydroxy)propyl]piperidine], where the note is “IM, unanesthetized dogs, 30 minutes before apomorphine hydrochloride 0.1 mg/kg s.c., footnote b: graphic estimate, vehicle 80% polyethylene glycol 300 and 20% water, read-out: ED50 (value obtained from a graphic estimate)”, the 50% effective dose (ED50) is roughly 1 mg/kg. Take `O=C(CCCN1CCC(C(=O)c2ccc(Cl)cc2)CC1)c1ccc(F)cc1` [Example 3, 4-(p-Chlorobenzoyl)-1-[3-(p-fluorobenzoyl)propyl]piperidine Hydrochloride]: the ED50 under setting [1] came to 0.077 mg/kg.

Regarding `O=C(CCCN1CCC(C(=O)c2ccc(F)cc2)CC1)c1ccc(F)cc1` [Example 1, 4-(p-Fluorobenzoyl)-1-[3-(p-fluorobenzoyl)propyl]piperidine Hydrochloride], the ED50 under setting [1] was 0.0083 mg/kg. Regarding `O=C(CCCN1CCC(C(O)c2ccc(F)cc2)CC1)c1ccc(F)cc1` (stereo not drawn) [Example 9, 4-(p-Fluoro-α-hydroxybenzyl)-1-[3-(p-fluorobenzoyl)propyl]piperidine], the 50% effective dose (ED50) (im, read-out: ED50 and 95% Confidence Limits) was determined as 0.132 mg/kg. Take `O=C(CCCN1CCC(C(=O)c2ccc(F)cc2)CC1)c1ccc(Cl)cc1` [Example 2, 4-(p-Fluorobenzoyl)-1-[3-(p-chlorobenzoyl)propyl]piperidine Hydrochloride]: the 50% effective dose (ED50) under setting [1] is 0.06 mg/kg.
